Laboratory results as given in ChEMBL document CHEMBL1130942, “A combinatorial approach to chemical modification of subtilisin Bacillus lentus” (Bioorg Med Chem Lett, 1998).

Tests used:
Format in all cases: ADME
[1] = Compound was tested for amidase rate in the presence of N62C fully characterised enzyme
[2] = Compound was tested for amidase rate in the presence of S166C screen enzyme
[3] = Compound was tested for amidase rate in the presence of S166C fully characterised enzyme
[4] = Compound was tested for esterase rate in the presence of S166C fully characterised enzyme
[5] = Compound was tested for esterase rate in the presence of N62C screen enzyme
[6] = Compound was tested for esterase rate in the presence of N62C fully characterised enzyme
[7] = Compound was tested for amidase rate in the presence of N62C screen enzyme
[8] = Compound was tested for esterase rate in the presence of S166C screen enzyme

k cat/Km [1]	k cat/Km [2]	k cat/Km [3]	k cat/Km [4]	k cat/Km [5]	k cat/Km [6]	k cat/Km [7]	k cat/Km [8]	Structure (SMILES)
93000 M⁻¹ s⁻¹	17000 M⁻¹ s⁻¹	68000 M⁻¹ s⁻¹	5.798e+06 M⁻¹ s⁻¹	5.68e+06 M⁻¹ s⁻¹	7.87e+06 M⁻¹ s⁻¹	86000 M⁻¹ s⁻¹	1.746e+06 M⁻¹ s⁻¹	COc1ccc(CSS(C)(=O)=O)cc1
442000 M⁻¹ s⁻¹	16000 M⁻¹ s⁻¹	72000 M⁻¹ s⁻¹	1.146e+07 M⁻¹ s⁻¹	7.68e+06 M⁻¹ s⁻¹	5.07e+07 M⁻¹ s⁻¹	74000 M⁻¹ s⁻¹	2.37e+06 M⁻¹ s⁻¹	CS(=O)(=O)SCc1ccc(C(=O)O)cc1
379000 M⁻¹ s⁻¹	10000 M⁻¹ s⁻¹	20000 M⁻¹ s⁻¹	4.92e+06 M⁻¹ s⁻¹	6.51e+06 M⁻¹ s⁻¹	6.33e+06 M⁻¹ s⁻¹	207000 M⁻¹ s⁻¹	1.16e+06 M⁻¹ s⁻¹	CS(=O)(=O)SCc1ccccc1

Structure (SMILES)	k cat/Km [1]	k cat/Km [2]	k cat/Km [3]	k cat/Km [4]	k cat/Km [5]	k cat/Km [6]	k cat/Km [7]	k cat/Km [8]
CS(=O)(=O)SCc1c(F)c(F)c(F)c(F)c1F [METHANETHIOSULFONIC ACID PENTAFLUOROPHENYLMETHYL ESTER]	198000 M⁻¹ s⁻¹	14000 M⁻¹ s⁻¹	67000 M⁻¹ s⁻¹	5.198e+06 M⁻¹ s⁻¹	7.52e+06 M⁻¹ s⁻¹	1.426e+07 M⁻¹ s⁻¹	111000 M⁻¹ s⁻¹	784000 M⁻¹ s⁻¹
